Patent publication US5204311A, “Ethanediimidic acid bis[(arylalkylidene)hydrazide] color-formers” (Minnesota Mining and Manufacturing Company, priority 1991, dated 1993)

Tests used:
[1] = Imaging of CB sheet with encapsulated color-former on Ni-coated CF sheet; format: physicochemical
Procedure: A precondensate solution was prepared comprising 192 g of formalin, 0.63 g of potassium tetraborate, 72 g of urea, and 328 g of soft water. The formalin was 37% formaldehyde and was added to a 1-liter flask equipped with a stirrer and heating mantle. The potassium tetraborate and urea were then added, and the mixture was heated to 70° C. The reaction was maintained at that temperature for 2.5-3.0 hr. The reaction mixture was then diluted with the water and allowed to cool. The precondensate solution, with about 24% solids, was then ready for use in the encapsulation process.
The precondensate and fill (ethanediimidic acid bis[hydrazide] and carrier or fill solvents) were combined to make capsules according to the following procedure. Sodium chloride (29.54 g) was added to the stirred precondensate solution and the temperature of the solution was adjusted to 20° C. The fill material (215 g) was added and full agitation was begun. After 5 minutes of stirring, 10% hydrochloric acid solution was added over 5 minutes in an amount such that the final pH of the reaction mixture was about 2.8. The reaction mixture was stirred for another 12 minutes. More of the 10% hydrochloric acid solution was added over a period of 12 minutes, in an amount such that the final pH of the solution was about […]. The reaction mixture was stirred at 20° C. for 1 hr, and then at 60° C. for 1-3 hr. The acidic solution was allowed to cool and adjusted to a pH of 7 by addition of concentrated ammonium hydroxide solution (28%). The capsule slurry could then be stored for later use.
(§1) The capsule slurry (10 g) was added to 65 g of a 1.5% aqueous sodium alginate solution. The mixture was applied to a coated paper using a bar coater with a 3 mil gap. The coating was allowed to dry at room temperature.
(§2) A 2% solution of the compound 1 in the capsule fill solvent of diethyl phthalate, tributyl phosphate, and cyclohexane was encapsulated by the procedure described in Experiment 5 above. A coating mixture of 10.0 g of capsule slurry, 2.5 g of Dow-620 butadiene-styrene latex, and 62.5 g of 1.5% sodium alginate slurry was coated onto paper by the draw down procedure described above.
(§3) A 7.5% solution comprising 5.45% N-(5-octanoylamido-2-metylpentyl)dithiooxamide/N-(5-octanoylamido-4-methylpentyl)dithiooxamide (G') mixture and 2.05% N,N'-di(5-octanoylamido-2-methylpentyl)dithiooxamide/N-(5-octanoylamido-2- methylpentyl)-N'-(5-octanoylamido-4-methylpentyl)dithiooxamide/N,N'-(5-octanoylamido-2-methylpentyl)dithiooxamide (G) mixture in the fill solvent mixture of diethyl phthalate, tributyl phosphate, and cyclohexanone was encapsulated by the procedure described above. A coating mixture of 10.0 g of capsule slurry, 2.5 g of Dow 620 styrene-butadiene latex, and 62.5 g of 1.5% sodium alginate solution was coated onto paper by the draw down procedure described in Experiment 5 above.
A blend was prepared of 10 g of the capsule slurry containing compound 1, with 10 g of capsule slurry containing 5.45% N-(5-octanoylamido-2-methylpentyl)dithiooxamide/N-(5-octanoylamido-4-methylpentyl)dithiooxamide (G') mixture and 2.05% N,N'-di(5-octanoylamido-2-methylpentyl)dithiooxamide/N-(5-octanoylamido-2- methylpentyl)-N'-(5-octanoylamido-4-methylpentyl)dithiooxamide/N,N'-di(5-octanoylamido-4-methylpentyl)dithiooxamide (G) mixture. […]

[2] = Color of coated CB sheet before imaging; format: physicochemical; conditions: encapsulated, before imaging (Experiments 6, 7)
Procedure: as §1, §2
as §3, with “5 above. […]” for “5 above.”

[3] = encapsulated, 2% compound 1 fill, 7.5% G'/G fill, or blend of both capsule slurries (Experiment 6)

CC(C)(C)c1cc(C=NN=C(N)C(N)=NN=Cc2cc(C(C)(C)C)cc(C(C)(C)C)c2O)c(O)c(C(C)(C)C)c1 [Compound 1, ethanediimidic acid bis[(3,5-di-t-butylsalicylidene)hydrazide]]
Image Color ([1]; encapsulated (Experiment 6)): yellow
Hunter coordinate L [1, 3]: 84.0
Hunter coordinate a [1, 3]: -2.04
Hunter coordinate b [1, 3]: 31.0
color of coated (CB) sheet [2]: neutral in color
